Assay results as given in PubChem BioAssay (NCI).
Where “and” joins values, the source holds several entries; their conditions need not be identical. Equal entries are not always repeated.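 Protocol summary: plate cells (96-well), add compound at 5 concentrations, incubate 48 h, interpolate endpoints linearly. GI50: concentration for 50% inhibition of growth. TGI marks complete inhibition of growth.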

Legend:
Test in all cases: inhibition of tumour cell growth, NCI panel, 48 h
786-0 renal = test system: 786-0 renal
CAKI-1 renal = test system: CAKI-1 renal
EKVX NSCLC = test system: EKVX NSCLC
HCT-116 colon = test system: HCT-116 colon
HL-60(TB) leukemia = test system: HL-60(TB) leukemia
HOP-62 NSCLC = test system: HOP-62 NSCLC
KM12 colon = test system: KM12 colon
MDA-MB-231 breast = test system: MDA-MB-231 breast
NCI-H23 lung = test system: NCI-H23 lung
OVCAR-4 ovarian = test system: OVCAR-4 ovarian

Nc1ncnc2c1c(-c1ccc(Oc3ccccc3)cc1)nn2CC1SSCC1O (stereo not drawn)
GI50 (786-0 renal): 4860 nM | TGI (786-0 renal): 11.2 µM | GI50 (CAKI-1 renal): 3710 nM | TGI (CAKI-1 renal): 12.7 µM | GI50 (EKVX NSCLC): 1040 nM | TGI (EKVX NSCLC): 6.25 µM | GI50 (HCT-116 colon): 590 nM | TGI (HCT-116 colon): 4.65 µM | GI50 (HL-60(TB) leukemia): 1490 nM | TGI (HL-60(TB) leukemia): 7.99 µM | GI50 (HOP-62 NSCLC): 3600 nM | TGI (HOP-62 NSCLC): 11.1 µM | GI50 (KM12 colon): 324 nM | TGI (KM12 colon): 7.67 µM | GI50 (MDA-MB-231 breast): 5360 nM | TGI (MDA-MB-231 breast): 16.8 µM | GI50 (NCI-H23 lung): 1700 nM | TGI (NCI-H23 lung): 7.97 µM | GI50 (OVCAR-4 ovarian): 2200 nM | TGI (OVCAR-4 ovarian): 22.1 µM

CC[n+]1c(-c2ccccc2)c2cc(N)ccc2c2ccc(N)cc21
GI50 (786-0 renal): 1370 nM and 1160 nM and 3570 nM | TGI (786-0 renal): 13.6 µM and 12.7 µM and 26.1 µM | GI50 (CAKI-1 renal): 66200 nM | TGI (CAKI-1 renal): > 100 µM | TGI (EKVX NSCLC): 34.2 µM and 42.8 µM and > 100 µM | GI50 (HCT-116 colon): 1710 nM | TGI (HCT-116 colon): 12.7 µM and 25.3 µM and 26.6 µM | TGI (HL-60(TB) leukemia): 18 µM and 26.9 µM and 47.6 µM | GI50 (HOP-62 NSCLC): 863 nM and 7400 nM and 2380 nM | GI50 (KM12 colon): 1020 nM | TGI (KM12 colon): 4.68 µM and 15 µM and 21.9 µM | GI50 (MDA-MB-231 breast): 2110 nM | TGI (MDA-MB-231 breast): 39.3 µM and 37.3 µM | GI50 (NCI-H23 lung): 515 nM | TGI (NCI-H23 lung): 3.65 µM and 5.2 µM and 3.61 µM | GI50 (OVCAR-4 ovarian): 705 nM | TGI (OVCAR-4 ovarian): 3.99 µM and 29.5 µM and 36 µM

Cc1ccccc1Nc1cc(O)c2c(=O)cc(-c3ccccc3)oc2c1
GI50 (786-0 renal): 4420 nM | TGI (786-0 renal): > 100 µM | GI50 (CAKI-1 renal): 2770 nM | TGI (CAKI-1 renal): > 100 µM | GI50 (EKVX NSCLC): 3350 nM | TGI (EKVX NSCLC): > 100 µM | GI50 (HCT-116 colon): 3360 nM | TGI (HCT-116 colon): > 100 µM | GI50 (HL-60(TB) leukemia): 2160 nM | TGI (HL-60(TB) leukemia): > 100 µM | GI50 (HOP-62 NSCLC): 3230 nM | TGI (HOP-62 NSCLC): > 100 µM | GI50 (KM12 colon): 2380 nM | TGI (KM12 colon): > 100 µM | GI50 (MDA-MB-231 breast): 3580 nM | TGI (MDA-MB-231 breast): > 100 µM | GI50 (NCI-H23 lung): 4750 nM | TGI (NCI-H23 lung): > 100 µM | GI50 (OVCAR-4 ovarian): 3380 nM | TGI (OVCAR-4 ovarian): > 100 µM

OCC1OC(OC2(CO)OC(CO)C(O)C2O)C(O)C(O)C1O (stereo not drawn)
GI50 (786-0 renal): > 100000 nM | TGI (786-0 renal): > 100 µM | GI50 (CAKI-1 renal): > 100000 nM | TGI (CAKI-1 renal): > 100 µM | GI50 (EKVX NSCLC): > 100000 nM | TGI (EKVX NSCLC): > 100 µM | GI50 (HCT-116 colon): > 100000 nM | TGI (HCT-116 colon): > 100 µM | GI50 (HL-60(TB) leukemia): > 100000 nM | TGI (HL-60(TB) leukemia): > 100 µM | GI50 (HOP-62 NSCLC): > 100000 nM | TGI (HOP-62 NSCLC): > 100 µM | GI50 (KM12 colon): > 100000 nM | TGI (KM12 colon): > 100 µM | GI50 (MDA-MB-231 breast): > 100000 nM | TGI (MDA-MB-231 breast): > 100 µM | GI50 (NCI-H23 lung): > 100000 nM | TGI (NCI-H23 lung): > 100 µM | GI50 (OVCAR-4 ovarian): > 100000 nM | TGI (OVCAR-4 ovarian): > 100 µM

CCN1C(=O)N(CC)C2C1NC(=S)N2/N=C/C=C/c1ccccc1 (stereo not drawn)
GI50 (786-0 renal): 158 nM | TGI (786-0 renal): > 100 µM | GI50 (CAKI-1 renal): 71.9 nM | TGI (CAKI-1 renal): > 100 µM | GI50 (EKVX NSCLC): 634 nM | TGI (EKVX NSCLC): > 100 µM | GI50 (HCT-116 colon): 106 nM | TGI (HCT-116 colon): > 100 µM | GI50 (HL-60(TB) leukemia): 38.7 nM | TGI (HL-60(TB) leukemia): 0.29 µM | TGI (HOP-62 NSCLC): > 100 µM | GI50 (KM12 colon): 92.4 nM | TGI (KM12 colon): > 100 µM | GI50 (MDA-MB-231 breast): 376 nM | TGI (MDA-MB-231 breast): > 28.1 µM | GI50 (NCI-H23 lung): 546 nM | TGI (NCI-H23 lung): > 100 µM | GI50 (OVCAR-4 ovarian): 3310 nM | TGI (OVCAR-4 ovarian): > 100 µM

O=c1[nH]c(=S)[nH]c(O)c1/C=C1\C=Nc2ccccc21
GI50 (786-0 renal): 6470 nM | TGI (786-0 renal): 22.2 µM | GI50 (CAKI-1 renal): 3610 nM | TGI (CAKI-1 renal): 20.3 µM | GI50 (EKVX NSCLC): 7140 nM | TGI (EKVX NSCLC): 32.8 µM | GI50 (HCT-116 colon): 2490 nM | TGI (HCT-116 colon): 10.1 µM | GI50 (HL-60(TB) leukemia): 2650 nM | TGI (HL-60(TB) leukemia): 8.88 µM | GI50 (HOP-62 NSCLC): 3660 nM | TGI (HOP-62 NSCLC): 38.4 µM | GI50 (KM12 colon): 1640 nM | TGI (KM12 colon): 3.34 µM | GI50 (MDA-MB-231 breast): 4100 nM | TGI (MDA-MB-231 breast): 33.6 µM | GI50 (NCI-H23 lung): 12400 nM | TGI (NCI-H23 lung): 44.2 µM | GI50 (OVCAR-4 ovarian): 21200 nM | TGI (OVCAR-4 ovarian): > 100 µM

CN(C)CCCOc1ccc(NC2=C(Cl)C(=O)C(Nc3ccc(OCCCN(C)C)cc3)=C(Cl)C2=O)cc1
GI50 (786-0 renal): 1590 nM | TGI (786-0 renal): 2.98 µM | GI50 (CAKI-1 renal): 1910 nM | TGI (CAKI-1 renal): 3.53 µM | GI50 (EKVX NSCLC): 582 nM | TGI (EKVX NSCLC): 1.26 µM | GI50 (HCT-116 colon): 183 nM | TGI (HCT-116 colon): 0.368 µM | GI50 (HL-60(TB) leukemia): 732 nM | TGI (HL-60(TB) leukemia): 2.02 µM | GI50 (HOP-62 NSCLC): 1830 nM | TGI (HOP-62 NSCLC): 3.31 µM | GI50 (KM12 colon): 801 nM | TGI (KM12 colon): 2.25 µM | GI50 (MDA-MB-231 breast): 656 nM | TGI (MDA-MB-231 breast): 1.49 µM | GI50 (NCI-H23 lung): 292 nM | TGI (NCI-H23 lung): 1.02 µM | GI50 (OVCAR-4 ovarian): 140 nM | TGI (OVCAR-4 ovarian): 0.27 µM

C[C@]12CCc3nc(Nc4ccc(O)cc4)sc3C1=CC[C@@H]1[C@@H]2CC[C@]2(C)/C(=N/NC(N)=S)CC[C@@H]12
GI50 (786-0 renal): 1640 nM | TGI (786-0 renal): 3.09 µM | GI50 (CAKI-1 renal): 1590 nM | TGI (CAKI-1 renal): 3.4 µM | GI50 (EKVX NSCLC): 1570 nM | TGI (EKVX NSCLC): 3.61 µM | GI50 (HCT-116 colon): 1150 nM | TGI (HCT-116 colon): 2.57 µM | GI50 (HL-60(TB) leukemia): 1880 nM | TGI (HL-60(TB) leukemia): 5.07 µM | GI50 (HOP-62 NSCLC): 1700 nM | TGI (HOP-62 NSCLC): 4.21 µM | GI50 (KM12 colon): 1260 nM | TGI (KM12 colon): 2.74 µM | GI50 (MDA-MB-231 breast): 1880 nM | TGI (MDA-MB-231 breast): 4.79 µM | GI50 (NCI-H23 lung): 1800 nM | TGI (NCI-H23 lung): 4.36 µM | GI50 (OVCAR-4 ovarian): 1600 nM | TGI (OVCAR-4 ovarian): 3.43 µM

C/C(=N\NC(=S)N1CCC1)c1ccccn1
GI50 (786-0 renal): 55.5 nM | TGI (786-0 renal): > 52.4 µM | TGI (CAKI-1 renal): 75.3 µM | TGI (EKVX NSCLC): 48.6 µM | GI50 (HCT-116 colon): 2.78 nM | TGI (HCT-116 colon): 52.2 µM | GI50 (HL-60(TB) leukemia): 4.5 nM | TGI (HL-60(TB) leukemia): 3.57 µM | GI50 (HOP-62 NSCLC): 22.3 nM | TGI (HOP-62 NSCLC): > 33.9 µM | GI50 (KM12 colon): 47.7 nM | TGI (KM12 colon): 46.7 µM | TGI (MDA-MB-231 breast): > 100 µM | GI50 (NCI-H23 lung): 6.22 nM | TGI (NCI-H23 lung): 39.7 µM | GI50 (OVCAR-4 ovarian): 3.12 nM | TGI (OVCAR-4 ovarian): > 56.7 µM

CCOC(=O)[C@@H](C)C[C@H](Cc1ccccc1)NC(=O)c1csc([C@@H](C[C@H](C(C)C)N(C)C(=O)CNC(=O)[C@H]2CCCCN2C)OC(C)=O)n1
GI50 (786-0 renal): 1370 nM | TGI (786-0 renal): > 14.3 µM | GI50 (CAKI-1 renal): 771 nM | TGI (CAKI-1 renal): > 14.3 µM | GI50 (EKVX NSCLC): 1970 nM | TGI (EKVX NSCLC): > 14.3 µM | GI50 (HCT-116 colon): 529 nM | TGI (HCT-116 colon): > 14.3 µM | GI50 (HL-60(TB) leukemia): 312 nM | TGI (HL-60(TB) leukemia): 1.01 µM | GI50 (HOP-62 NSCLC): 1870 nM | TGI (HOP-62 NSCLC): > 14.3 µM | GI50 (KM12 colon): 556 nM | TGI (KM12 colon): > 14.3 µM | GI50 (MDA-MB-231 breast): 1440 nM | TGI (MDA-MB-231 breast): > 10.8 µM | GI50 (NCI-H23 lung): 2340 nM | TGI (NCI-H23 lung): > 14.3 µM | GI50 (OVCAR-4 ovarian): 1300 nM | TGI (OVCAR-4 ovarian): > 14.3 µM

CC(C)(C)O/N=C/c1cc(NC(=S)c2ccccc2)ccc1Cl
TGI (786-0 renal): 32.5 µM | TGI (CAKI-1 renal): 72.4 µM | TGI (EKVX NSCLC): 40.7 µM | TGI (HCT-116 colon): 29.4 µM | TGI (HL-60(TB) leukemia): 42.6 µM | TGI (HOP-62 NSCLC): 37.1 µM | TGI (KM12 colon): 25.7 µM | TGI (MDA-MB-231 breast): 40.3 µM | TGI (NCI-H23 lung): 34.1 µM | TGI (OVCAR-4 ovarian): 74.7 µM
